Here are results for two compounds from article PMC6801448, “The Antioxidant and Antiproliferative Activities of 1,2,3-Triazolyl-L-Ascorbic Acid Derivatives” (International Journal of Molecular Sciences, 2019).

Like-named read-outs stand apart in the source and are kept apart here.

The nature of data set [1]: DPPH radical scavenging assay. Type of data set: biochemical. The method, boiled down: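 Compounds at 0.06, 0.12, 0.18, 0.23, 0.25 and 0.28 mM reacted with the stable DPPH• radical. Absorbance at 517 nm was read 5 and 10 min after mixing to follow DPPH reduction, with L-ascorbic acid as the reference.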
In general terms: DPPH is a stable violet radical that fades when it is reduced.

Data set [2] relates to A549 (lung adenocarcinoma). Nature of the data set: MTT proliferation assay, A549. Type of data set: cell-based. To be noted: Homo sapiens, 72 h. Summed up:
(§1)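 Following a 24 h attachment at 5000 cells per well, cultures in DMEM supplemented with 10% FBS were incubated with compound for 72 h; MTT formazan was then quantified at 570 nm to compute IC50.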

For data set [3], the system named is CFPAC-1 (ductal pancreatic adenocarcinoma). Nature of the data set: MTT proliferation assay, CFPAC-1. The data set is classed as cell-based. To be noted: Homo sapiens, 72 h. The method, boiled down:
as §1
(Formazan colour is commonly taken as a measure of viable cells.)

Data set [4] deals with HCT-116 (colorectal carcinoma). In words: MTT proliferation assay, HCT-116. To be noted: Homo sapiens, 72 h. Type of data set: cell-based. Summed up: as §1
Data set [5] deals with HeLa (cervical carcinoma). Nature of the data set: MTT proliferation assay, HeLa. The data set is classed as cell-based. The settings on record: Homo sapiens, 72 h. The method, boiled down: as §1
The subject of data set [6] is HepG2 (hepatocellular carcinoma). Nature of the data set: MTT proliferation assay, HepG2. The data set is classed as cell-based. The settings on record: Homo sapiens, 72 h. Summed up: as §1
Data set [7] concerns MCF-7 (breast adenocarcinoma). Nature of the data set: MTT proliferation assay, MCF-7. The data set is classed as cell-based, Human. To be noted: Homo sapiens, MCF7; 72 h, MTT. The method, boiled down:
as §1

Data set [8] deals with SW620 (colorectal adenocarcinoma, metastatic). In words: MTT proliferation assay, SW620. The data set is classed as cell-based. The settings on record: Homo sapiens, SW-620, 72 h. Summed up: as §1
Another data set has as its system WI-38 (lung fibroblasts). Nature of the data set: MTT proliferation assay, WI-38. The data set is classed as cell-based. To be noted: Homo sapiens, 72 h, normal lung fibroblasts. The method, boiled down:
as §1

The test system of data set [9] is HFF-1 (foreskin fibroblasts). Nature of the data set: MTT proliferation assay, HFF-1. The settings on record: Homo sapiens, 72 h, normal foreskin fibroblasts. The data set is classed as cell-based. On the procedure:
(§2) Human tumor cell lines HeLa (cervical carcinoma), SW620 (colorectal adenocarcinoma, metastatic), A549 (lung adenocarcinoma), MCF−7 (breast adenocarcinoma), CFPAC-1 (pancreatic adenocarcinoma, metastatic), HCT-116 (colorectal carcinoma), and HepG2 (hepatocellular carcinoma), and normal cell lines HFF-1 (foreskin fibroblasts) and WI-38 (immortalized human lung fibroblast), were from the US American Type Culture Collection (ATCC, Manassas, VA, USA). Cells were cultured in a liquid nutrient medium (Dulbecco’s Modified Eagle Medium, LONZA, Basel, Switzerland) supplemented with 10% fetal bovine serum (FBS, Gibco, Grand Island, NY, USA), 2 mM L-glutamine (GIBCO, Grand Island, NY, USA), 100 μg/mL penicillin, and 100 μg/mL streptomycin (LONZA, Basel, Switzerland), in an incubator (NÜVE, Ankara, Turkey), at a humid atmosphere with 5% CO2 at 37 °C. Trypsin/EDTA Solution (Lonza, Basel, Switzerland), was used for cell passaging and cell detachment.
(§3) Adherent cells were seeded on 96 well microtiter plates (Falcon, New York, NY, USA) at a seeding density of 5000 cells per well, added in 150 μL of cell suspension in a nutrient medium. 24 h after seeding, cells were treated with compound 4b–4g, 4i, 4k–4t, 4v, 7c–7g, and 7i–7q dilutions in the range of 0.01 μM to 100 μM. L-ascoric acid (Sigma Aldrich, Darmstadt, Germany) and Carboxyamidotriazole (Sigma Aldrich, Darmstadt, Germany) were used as control compounds. Incubation of the cells with the compounds were performed for 72 h in a 5% CO2, in humid atmosphere at 37 °C. After incubation, nutrient medium was removed and 40 μL of the MTT reagent ([…]-2,5-diphenyltetrazole bromide (Invitrogen, Carlsbad, CA, USA) was added to each well. 3 h after incubation, 160 μL of DMSO (VWR CHEMICALS, Radnor, PA, USA) were added to each well to dissolve the crystals of purple formazane. The absorbance was measured at 570 nm (TECAN SUNRISE Microtiter plate reader (Männedorf, Switzerland). The experimentally measured optical densities (OD) were converted to the PG (percentage of growth), using the formulas according to the protocol assumed by NIH (National Institute of Health). The IC50 values (concentration causing 50% cell growth inhibition) for each compound were calculated by regression analysis of the survival count curve of the concentrations of the tested compounds. The results were processed in Excel 2010 (Microsoft, Redmond, WA, USA).

Data set [10] relates to tested cell lines (A549, CFPAC-1, HCT-116, HeLa, HepG2, MCF-7, SW620, WI-38, HFF-1). Nature of the data set: MTT proliferation assay, whole tested cell panel. Type of data set: cell-based, Human. The settings on record: 0.01 µM to 100 µM, 72 h. On the procedure: The C-6 substituted 1,2,3-triazole derivatives of L-ASA within the C5-OH group ([…], 4i, 4k−4t, and 4v) and with the C4=C5 double bond (7c−7g and 7i−7q) were evaluated against seven malignant tumor cell lines: lung adenocarcinoma (A549), ductal pancreatic adenocarcinoma (CFPAC-1), colorectal carcinoma (HCT-116), cervical carcinoma (HeLa), hepatocellular carcinoma (HepG2), breast adenocarcinoma (MCF-7), colorectal adenocarcinoma, and metastatic (SW620); as well as normal cell lines: lung fibroblasts (WI-38) and foreskin fibroblasts (HFF-1) (Table 3, Table S1, Supplementary Information). L-ASA was used as a positive control, and carboxyamidotriazole, a known antiproliferative agent that inhibits tumor cell growth, invasion, and metastasis, and 5-fluorouracil (5-FU), were used as reference compounds.
as §2, §3

The mark [11] stands for this setting: 5 min treatment, read-out: IC50 of DPPH• inhibition, Treatm. 5 min.
The mark [12] stands for this setting: 10 min treatment, read-out: IC50 of DPPH• inhibition, Treatm. 10 min.

With `O=C1O[C@H]([C@@H](O)Cn2cc(-c3cc(F)cc(F)c3)nn2)C(O)=C1O` [Compound 4d, 6-deoxy-6-[4-(3,5-difluorophenyl)-1,2,3-triazol-1-yl]-L-ascorbic acid], the melting point (as a rule, the temperature, or range, at which the solid turns liquid) is 189 to 191 °C. In addition, the IC50 (commonly the midpoint of a concentration-inhibition curve) in data set [1] (setting [11]) came out at 270 ± 10 µM. The IC50 in [1] (setting [12]) was 270 µM. The compound also registered an IC50 in data set [2] of 81.7 µM. The IC50 in data set [3] is 75.8 µM. The compound also yielded a concentration for half-maximal inhibition (IC50) in data set [4] of 64.8 µM. Also, the IC50 in [5] came to 56.8 µM. This compound also came in with an IC50 in data set [6] of 95.3 µM. The midpoint of inhibition in data set [7], the IC50, lay at 39.8 µM. Half-maximal inhibition in data set [8] (IC50) required 92 µM. The compound also registered an IC50 in the data set on WI-38 (lung fibroblasts) of over 100 µM. The compound also displayed an IC50 in [9] of 0.12 µM. Also, the “antiproliferative / cytotoxic effect on the tested cell lines (in words)” value in data set [10] was “nonspecific cytostatic effect”.
`Cc1ccc(-c2cn(C[C@H](O)[C@H]3OC(=O)C(O)=C3O)nn2)cc1` [Compound 4f, 6-deoxy-6-[4-tolyl-1,2,3-triazol-1-yl]-L-ascorbic acid] returned a melting point of 152 to 154 °C. Besides, in [1] (setting [11]), the IC50 was 200 ± 20 µM. In data set [1] (setting [12]), the IC50 was found to be 140 ± 10 µM. Further, the IC50 in data set [2] is over 100 µM. Also, in [3], the IC50 is over 100 µM. In data set [4], the IC50 was over 100 µM. The IC50 in [5] is over 100 µM. The compound also had an IC50 in data set [6] of over 100 µM. This compound registered an IC50 in data set [7] of over 100 µM. The IC50 in [8] is over 100 µM. For the same compound, in the data set on WI-38 (lung fibroblasts), the IC50 is over 100 µM. Also, in data set [9], the IC50 came to 69.3 µM. Besides, the “antiproliferative / cytotoxic effect on the tested cell lines (in words)” value in data set [10] is listed as “did not show any cytotoxic effects”.
